Experimental data as given in patent publication US10160747B2, “Compounds and methods for kinase modulation, and indications therefor” (Plexxikon Inc., priority 2016, dated 2018).

Molecular target: T1, FLT3-ITD (Homo sapiens, UniProt P36888)
T1 sequence (P36888 1-993): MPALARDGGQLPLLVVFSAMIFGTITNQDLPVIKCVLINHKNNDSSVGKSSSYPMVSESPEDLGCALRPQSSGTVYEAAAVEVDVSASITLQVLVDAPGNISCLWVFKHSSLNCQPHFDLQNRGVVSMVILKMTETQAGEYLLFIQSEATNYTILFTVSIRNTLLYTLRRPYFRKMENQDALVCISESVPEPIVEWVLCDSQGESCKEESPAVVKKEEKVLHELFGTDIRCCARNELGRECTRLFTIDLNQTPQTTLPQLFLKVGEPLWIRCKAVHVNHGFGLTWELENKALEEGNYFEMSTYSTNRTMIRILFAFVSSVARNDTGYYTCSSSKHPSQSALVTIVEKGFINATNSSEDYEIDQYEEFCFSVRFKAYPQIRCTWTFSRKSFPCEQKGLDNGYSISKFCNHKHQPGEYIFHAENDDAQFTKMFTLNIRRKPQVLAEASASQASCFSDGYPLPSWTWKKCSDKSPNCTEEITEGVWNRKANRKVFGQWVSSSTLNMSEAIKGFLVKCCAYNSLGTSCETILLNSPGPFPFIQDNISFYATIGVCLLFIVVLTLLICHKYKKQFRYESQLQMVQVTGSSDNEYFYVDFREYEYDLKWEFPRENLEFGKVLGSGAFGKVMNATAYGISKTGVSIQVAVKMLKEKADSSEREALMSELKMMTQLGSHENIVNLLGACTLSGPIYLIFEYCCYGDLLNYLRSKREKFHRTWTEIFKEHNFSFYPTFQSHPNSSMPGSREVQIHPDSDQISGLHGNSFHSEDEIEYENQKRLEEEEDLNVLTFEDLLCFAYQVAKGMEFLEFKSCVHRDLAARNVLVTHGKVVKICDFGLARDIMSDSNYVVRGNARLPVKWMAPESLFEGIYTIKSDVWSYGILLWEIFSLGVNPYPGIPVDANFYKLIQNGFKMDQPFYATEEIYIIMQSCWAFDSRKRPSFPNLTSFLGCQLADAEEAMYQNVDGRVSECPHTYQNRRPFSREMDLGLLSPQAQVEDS
Assay: FLT3-ITD recombinant enzyme kinase assay (AlphaScreen)
Format: biochemical
Settings: 8 pt; read-out: FLT3_ITD 8 pt: IC50
How it was run: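 IC50 values come from AlphaScreen proximity signal: phosphorylated biotin-poly(Glu4-Tyr) (30 nM) bridges streptavidin donor and anti-phosphotyrosine PY20 acceptor beads. Enzyme reactions ran at 100 μM ATP for c-KIT versus 10 μM for both FLT3 mutants (ITD, D835Y); beads added in stop buffer, room temperature.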

Row | SMILES | IC50
1 | O=C(Cc1ccc(-c2cnc3[nH]c(Cl)cc3c2)cc1F)Nc1ccnc(C(F)(F)F)c1 [Compound P-0030, 2-[4-(2-chloro-1H-pyrrolo[2,3-b]pyridin-5-yl)-2-fluoro-phenyl]-N-[2-(trifluoromethyl)-4-pyridyl]acetamide] | 0.0001 to 10 µM
2 | Cn1cc(Nc2ncc(-c3ccc(CC(=O)NCc4ccccn4)c(F)c3)cn2)cn1 [Compound P-0088, 2-[2-fluoro-4-[2-[(1-methylpyrazol-4-yl)amino]pyrimidin-5-yl]phenyl]-N-(2-pyridylmethyl)acetamide] | 0.0001 to 10 µM
3 | COc1ncc(NC(=O)Cc2cc(F)c(-c3cnc4[nH]c(Cl)cc4c3)cc2F)cc1C(F)(F)F [Compound P-0045, 2-[4-(2-chloro-1H-pyrrolo[2,3-b]pyridin-5-yl)-2,5-difluoro-phenyl]-N-[6-methoxy-5-(trifluoromethyl)-3-pyridyl]acetamide] | 0.0001 to 10 µM
4 | COc1ncc(NC(=O)Cc2ccc(-c3cnc4[nH]c(Cl)cc4c3)c(F)c2)cc1C(F)(F)F [Compound P-0046, 2-[4-(2-chloro-1H-pyrrolo[2,3-b]pyridin-5-yl)-3-fluoro-phenyl]-N-[6-methoxy-5-(trifluoromethyl)-3-pyridyl]acetamide] | 0.0001 to 10 µM
5 | Cn1cnc(Nc2ncc(-c3ccc(CC(=O)Nc4cc(C(C)(F)F)ccn4)cc3F)cn2)c1 [Compound P-0171, N-[4-(1,1-difluoroethyl)-2-pyridyl]-2-[3-fluoro-4-[2-[(1-methylimidazol-4-yl)amino]pyrimidin-5-yl]phenyl]acetamide] | 0.0001 to 10 µM

Results, then the compound that gave them:

Row | IC50 | SMILES
6 | 0.0001 to 10 µM | COc1ncc(NC(=O)Cc2ccc(-c3cnc4[nH]c(Cl)cc4c3)cc2F)cc1C(F)(F)F [Compound P-0038, 2-[4-(2-chloro-1H-pyrrolo[2,3-b]pyridin-5-yl)-2-fluoro-phenyl]-N-[6-methoxy-5-(trifluoromethyl)-3-pyridyl]acetamide]
7 | 0.0001 to 10 µM | Cn1cc(Nc2ncc(-c3ccc(CC(=O)NCc4ccc(C(F)(F)F)cn4)cc3)cn2)cn1 [Compound P-0162, 2-[4-[2-[(1-methylpyrazol-4-yl)amino]pyrimidin-5-yl]phenyl]-N-[[5-(trifluoromethyl)-2-pyridyl]methyl]acetamide]
8 | 0.0001 to 10 µM | O=C(Cc1ccc(-c2cnc3c(c2)C2(CC2)C(=O)N3)cc1F)Nc1cncc(C(F)(F)F)c1 [Compound P-0064, 2-(2-fluoro-4-(2′-oxo-1′,2′-dihydrospiro[cyclopropane-1,3′-pyrrolo[2,3-b]pyridin]-5′-yl)phenyl)-N-(5-(trifluoromethyl)pyridin-3-yl)acetamide]
